Earlier results as cited in patent US20020031490A1, “Method for preparing resinates” (priority 2000, published 2002).

Structure (SMILES): COc1ccc2c(c1)c(CC(=O)O)c(C)n2C(=O)c1ccc(Cl)cc1 [indomethacin]
- solubility of indomethacin in water: 14 ppm
